Results: US20050272649A1, “Conjoint administration of morphogens and ACE inhibitors in treatment of chronic renal failure” (priority 2002, published 2005)
“Also recorded” adds a separate entry of the source. Read-outs that look alike come from different tables or passages of the source.

What was measured:
[1] = test system: streptozotocin diabetic Sprague-Dawley rats; type: in vivo; conditions: for GFR (ml/min/100 g bw): inulin clearance at 32 weeks; for mesangial matrix accumulation (in words): PAS / Trichrome histology at 32 weeks; for kidney weight / renal hypertrophy (in words): treatment weeks 16-32, versus vehicle-treated diabetic rats
Experimental: A long-term streptozotocin model of diabetic nephropathy was used to test and compare the therapeutic actions of BMP-7 with those of Enalapril. The study design was a treatment protocol beginning at 16 weeks when glomerular hypertrophy and proteinuria were established. The effects of therapy with BMP-7 (10, 30, or 100 μg/kg iv, biw) were compared to a maximal dose of Enalapril (20 mg/kg) and to a vehicle control. […] The GFR of 32 week diabetic Enalapril treated rats was 0.58±0.06 (not significant compared to vehicle treated and sham injected rats 0.55±0.02).
Animals: Female Sprague-Dawley rats 10 weeks of age weighing 190-220 g were used. Animals were allowed free access to standard rat chow and to tap water. Diabetes mellitus was induced by a single tail-vein injection of Streptozotocin (STZ 62 mg/kg of body weight, Sigma chemical company, St. Louis, Mo.) dissolved in normal saline at day 0. The diabetic state was confirmed 72 hours later by the determination of blood glucose concentration>300 mg/dl. From day 3, all the diabetic rats received daily subcutaneous injections of 1.0-7.0 u human recombinant long-acting insulin injection (Eli Lilly & Co., Indianapolis, Ind.) as required to maintain the blood glucose concentration between 300-500 mg/dl. Tail blood glucose levels were measured twice a week with an Accu—Chek™ Advantage meter (Roche Diagnostic Corporation, Indianapolis, Ind.). Body weights were taken once a week. Food and water intake were monitored daily.
Renal hypertrophy was well developed at 16 weeks prior to treatment with vehicle, BMP-7, or enalapril. […], animals were divided into 8 groups. Group 1 were 16 weeks of DM. Group 2 were 16 weeks normal controls. Group 3 DM animals were treated with tail-vein injection of vehicle twice a week for 16 weeks. Group 4, Group 5, and Group 6 were DM animals treated with tail-vein injections of BMP-7 100, 30, and 10 μg/kg body weight respectively twice a week for 16 weeks. Group 7 were treated with Enalapril 20 mg/kg through the drinking water for 16 weeks. […] Group 1 and Group 2 animals were sacrificed at 16 weeks. The others were sacrificed at 32 weeks. All treatments began at 16 weeks and continued through 32 weeks. Glomerular filtration rate (GFR), urine albumin excretion, kidney weight, glomerular area, mesangial matrix area, interstitial volume, monocyte and macrophage infiltration, thickness of glomerular basement membrane (GBM) and glomerulosclerosis were measured.
Renal Function: In all animals, glomerular filtration rate (GFR) was measured as the clearance of inulin. Rats were anesthetized with a Ketamine/Xylozine cocktail. A catheter was inserted into the femoral vein under a dissecting microscope for infusion. Another catheter was placed into the femoral artery for collecting blood samples. Urine was collected by bladder cannulation.
After the completion of surgery, a bolus of 2 ml/kg of 3% inulin (Cypros Pharmaceutical Corp, W. Carlsbad, Calif.) and 0.2% p-aminohippurate (PAH) in normal saline was infused as a priming load, followed by a sustaining infusion of the same solution at the rate of 8 ml/h·kg. Urine collection was initiated for three 20-minute collection periods after an hour of equilibration. An arterial blood sample was obtained during each clearance period. Plasma and urine were analyzed for inulin.
Urine volume was measured and urinary protein concentration was determined with a Bio-Rad protein assay.
Preparation of Kidneys: After the clearance studies, the rats were euthanized. Both kidneys were rapidly removed and placed in ice-cold phosphate buffered saline (PBS). Kidneys were weighed and then sliced on a cold glass plate. Two 2 mm coronal sections were immersed in Histochoice and in 10% buffered formalin. Kidney sections were embedded in paraffin and cut at 3 μm and stained with hematoxylin and eosin, Gomori's Trichrome and periodic acid Schiff (PAS).
Renal Morphology: The morphometric analysis was done in a blind manner. […]

[2] = test system: rat remnant kidney model (5/6 NPX); experiment: rat partial (5/6) nephrectomy chronic renal failure injury model; type: in vivo; conditions: enalapril 100 mg/L drinking water with or without OP-1; up to 26 weeks after nephrectomy
Source text: A rat partial (5/6) nephrectomy or rat remnant kidney model (RRKM) model was employed essentially as described (Vukicevic, et al. (1987) J. Bone Mineral Res. 2: 533, the entire content of which is incorporated herein by reference). Male Munich-Wistar rats (2-3 months old, weighing about 200-250 g) were subjected to renal mass ablation. Specifically, the right kidney is excised in conjunction with selective ligation of the left renal artery branches such that one third of the kidney remains perfused (5/6 NPX, see FIG. 12). Immediately following surgery, plasma creatinine and BUN levels rise dramatically due to the loss of renal mass and function. Over the next several weeks of this “acute” failure phase, plasma creatinine and BUN levels of surviving animals decline somewhat toward normal values but remain elevated. Renal function then appears to remain relatively constant or stable for a period of variable duration. After this point, the animals enter a period of chronic renal failure in which there is an essentially linear decline in renal function ending in death. For these reasons, animals are given 4 weeks of recovery prior to initiation of treatments.
Four weeks after nephrectomy, rats were divided into four treatment groups (see Table III), namely OP-1 (150 μg/kg body weight, 3×/week, by i.p. injection), Vehicle (20 mM arginine/150 mM NaCl, 0.1% Tween-80, pH 9.0, 1 ml/kg body weight, 3×/week, by i.p. injection), enalapril (100 mg/L in drinking water, 8-16 mg/kg body weight), and OP-1 with enalapril. For the first two groups (OP-1 and Vehicle), animals were sacrificed 14 weeks after nephrectomy. For the last two groups (enalapril, and OP-1 with enalapril), animals were sacrificed 26 weeks after nephrectomy. As surgical controls, rats were subjected to a “sham” operation in which the kidneys were decapsulated but no renal tissue was removed. Sham-treated animals were sacrificed 26 weeks after operation. None of the rats died in any group during this study. Systolic blood pressure, urine protein and/or glomerulosclerosis were monitored at intervals between 4 and 26 weeks post surgery.

[3] = Enalapril 20 mg/kg in drinking water (100 mg/l)
[4] = Enalapril 20 mg/kg in drinking water (100 mg/l), weeks 16-32
[5] = Enalapril 20 mg/kg in drinking water (100 mg/l), weeks 16-32, at 32 weeks
[6] = treatment weeks 16-32, listed as Enalapril

CCOC(=O)[C@H](CCc1ccccc1)N[C@@H](C)C(=O)N1CCC[C@H]1C(=O)O [enalapril, N-(1-ethoxycarbonyl-3-phenylpropyl)-L-ananyl-L-proline, reference compound]
renal BMP-7 expression (in situ hybridization) ([1]; 32 weeks): restored BMP-7 expression at high levels in the collecting duct; also recorded: restored BMP-7 expression in its normal pattern at high levels; also recorded: restored the normal distribution of BMP-7 expression
renal Wnt4 expression (in situ hybridization) ([1]; 32 weeks): without affecting Wnt4 expression; also recorded: do not affect Wnt4 expression; also recorded: had no effect on Wnt4 expression
monocyte/macrophage tubulointerstitial infiltration ([1]; ED-1 positive cells, 32 weeks): decreased the tubulointerstitial infiltration
Cause-Mortality hypoglycemia [1, 3]: 1/10
Cause-Mortality ketoacidosis [1, 3]: 1/10
Cause-Mortality unknown [1, 3]: 1/10
Body Weight (g) End [1, 4]: 294.9 ± 4.4 g
Body Weight (g) Weight Gain [1, 4]: 78.7 ± 5.9 g
Protein Ex (mg/day), urine protein excretion [1, 5]: 33.59 ± 7.58 mg/day
kidney weight [1, 5]: 1.09 ± 0.04 g
kidney weight ([1]; Enalapril 20 mg/kg in drinking water (100 mg/l), weeks 16-32, at 32 weeks, listed as E): 1.09 ± 0.04 g
Mortality ([1]; Enalapril 20 mg/kg in drinking water (100 mg/l), weeks 16-32, deaths/animals): 3/10
GFR (ml/min/100 g bw) ([1]; Enalapril 20 mg/kg in drinking water (100 mg/l), weeks 16-32, listed as E): 0.58 ± 0.06 ml/min/100 g bw
GFR (ml/min/100 g bw) ([1]; Enalapril 20 mg/kg in drinking water (100 mg/l), weeks 16-32, listed as Enalapril): 0.58±0.06 ml/min/100 g bw
cortical interstitial area / volume ([1]; Enalapril 20 mg/kg, weeks 16-32, DM vehicle 13.1±0.7%): 10.3±0.4%
mesangial matrix accumulation (in words) [1]: more mesangial matrix accumulation
mesangial matrix accumulation (in words) ([1]; listed as Enalapril): less effective than intermediate or high dose BMP-7 in eliminating accumulation of mesangial matrix
glomerulosclerosis (in words) ([1]; treatment weeks 16-32): decreased glomerular sclerosis; also recorded: markedly reduced
urine protein excretion / proteinuria / albuminuria (in words) ([1]; treatment weeks 16-32): reversed
GFR (in words) ([1]; treatment weeks 16-32, versus vehicle-treated diabetic and normal rats): normal or greater; also recorded: restored GFR to normal or slightly above normal
kidney weight / renal hypertrophy (in words) [1]: partially reversed diabetic renal hypertrophy
kidney weight / renal hypertrophy (in words) ([1]; listed as Enalapril): equal in partially reversing kidney hypertrophy; also recorded: equally effective
glomerular area / glomerular hypertrophy (in words) [1, 6]: significantly decreased; also recorded: equally effective
glomerulosclerosis (in words) [1, 6]: less effective in preventing glomerulosclerosis; also recorded: less so by Enalapril
interstitial volume (in words) [1, 6]: significantly decreased; also recorded: equally effective
systolic blood pressure (tail artery cuff) [1, 6]: controlled hypertension throughout the course of therapy; also recorded: reversed the hypertension of the diabetic rats; also recorded: normalized blood pressure during the entire 16 week course of therapy; also recorded: restored blood pressure to normal
proteinuria level (late-stage) [2]: 105 mg/day
